Assay results as given in ChEMBL document CHEMBL1135903 (J Med Chem, 2002).

Assays:
Carbonic anhydrase 4 = biological target: T1, Carbonic anhydrase 4 (Bos taurus, UniProt Q95323)
T1 sequence (Q95323 whole entry): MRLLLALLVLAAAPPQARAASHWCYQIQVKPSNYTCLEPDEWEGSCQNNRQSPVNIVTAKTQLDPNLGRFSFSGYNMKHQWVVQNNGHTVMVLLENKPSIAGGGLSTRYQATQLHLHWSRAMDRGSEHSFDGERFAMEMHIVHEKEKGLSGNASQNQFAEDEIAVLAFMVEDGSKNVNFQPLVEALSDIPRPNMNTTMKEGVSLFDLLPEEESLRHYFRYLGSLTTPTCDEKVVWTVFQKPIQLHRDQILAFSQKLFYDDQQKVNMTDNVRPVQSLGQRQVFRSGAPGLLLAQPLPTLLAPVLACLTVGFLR
Description: Inhibitory activity against bovine carbonic anhydrase IV

Carbonic anhydrase 1 = Carbonic anhydrase 1 (Homo sapiens, UniProt P00915)
Sequence of Carbonic anhydrase 1 (P00915 whole entry): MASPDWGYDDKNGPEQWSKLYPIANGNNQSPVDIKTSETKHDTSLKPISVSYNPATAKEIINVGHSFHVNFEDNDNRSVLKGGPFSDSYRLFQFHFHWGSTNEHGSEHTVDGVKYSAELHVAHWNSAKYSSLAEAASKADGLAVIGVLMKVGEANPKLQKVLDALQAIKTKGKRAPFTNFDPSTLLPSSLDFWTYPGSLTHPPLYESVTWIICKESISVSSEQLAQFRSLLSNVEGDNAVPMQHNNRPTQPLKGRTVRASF
Description: Inhibitory activity against Human carbonic anhydrase I

Structure (SMILES) | Ki (Carbonic anhydrase 4) [nM] | Ki (Carbonic anhydrase 1) [nM]
NS(=O)(=O)c1ccc(NC(=O)CN(CCOCCOCCN(CC(=O)O)CC(=O)Nc2ccc(S(N)(=O)=O)cc2Br)CC(=O)O)c(Br)c1 | 25 | 85
Cn1nc(S(N)(=O)=O)s/c1=N/C(=O)CN(CCOCCOCCN(CC(=O)O)CC(=O)/N=c1/sc(S(N)(=O)=O)nn1C)CC(=O)O | 7 | 32
Cn1nc(S(N)(=O)=O)s/c1=N/C(=O)CN(CCN(CCN(CC(=O)O)CC(=O)/N=c1/sc(S(N)(=O)=O)nn1C)CC(=O)O)CC(=O)O | 5 | 43
NS(=O)(=O)c1ccccc1NC(=O)CN(CCN(CC(=O)O)c1ccccc1O)c1ccccc1O | 800 | 12500
NS(=O)(=O)c1ccc(CCOC(=O)CNCCNCC(=O)O)cc1 | 330 | 1000
NS(=O)(=O)c1ccc(NC(=O)CN(CCOCCOCCN(CC(=O)O)CC(=O)Nc2ccc(S(N)(=O)=O)cc2)CC(=O)O)cc1 [listing 1 of 2 here] | 150 | 3800
NS(=O)(=O)c1cccc(NC(=O)CN(CCN(CCN(CC(=O)O)CC(=O)Nc2cccc(S(N)(=O)=O)c2)CC(=O)O)CC(=O)O)c1 | 425 | –
NS(=O)(=O)c1nnc(NC(=O)CNCCNCC(=O)O)s1 | 130 | 250
NS(=O)(=O)c1ccc(NC(=O)CN(CCN(CC(=O)O)c2ccccc2O)c2ccccc2O)cc1 | 320 | 11500
NS(=O)(=O)c1ccc(NC(=O)CN(CCOCCOCCN(CC(=O)O)CC(=O)Nc2ccc(S(N)(=O)=O)cc2)CC(=O)O)cc1 [listing 2 of 2 here] | 76 | 300
NS(=O)(=O)c1ccc(NC(=O)CNCC(=O)O)c(F)c1 | 145 | 1300
NS(=O)(=O)c1ccc(NC(=O)CN(CCN(CCN(CC(=O)O)CC(=O)Nc2ccc(S(N)(=O)=O)cc2Br)CC(=O)O)CC(=O)O)c(Br)c1 | 21 | –
NS(=O)(=O)c1nnc(NC(=O)CNCC(=O)O)s1 | 265 | 415
NS(=O)(=O)c1ccc(CNC(=O)CN(CCN(CCN(CC(=O)O)CC(=O)NCc2ccc(S(N)(=O)=O)cc2)CC(=O)O)CC(=O)O)cc1 [listing 1 of 2 here] | 37 | –
NS(=O)(=O)c1cc(S(N)(=O)=O)c(NC(=O)CN(CCN(CCN(CC(=O)O)CC(=O)Nc2c(S(N)(=O)=O)cc(S(N)(=O)=O)c(Cl)c2Cl)CC(=O)O)CC(=O)O)c(Cl)c1Cl | 25 | –
NS(=O)(=O)c1ccccc1NC(=O)CN(CCN(CC(=O)O)CC(=O)O)CC(=O)O | 800 | 9200
NS(=O)(=O)c1cc(S(N)(=O)=O)c(NC(=O)CNCCNCC(=O)O)cc1Cl | 135 | 250
NS(=O)(=O)c1ccc(NNC(=O)CN(CCOCCOCCN(CC(=O)O)CC(=O)NNc2ccc(S(N)(=O)=O)cc2)CC(=O)O)cc1 | 400 | 9500
NS(=O)(=O)c1cc(S(N)(=O)=O)c(NC(=O)CN(CCOCCOCCN(CC(=O)O)CC(=O)Nc2c(S(N)(=O)=O)cc(S(N)(=O)=O)c(Cl)c2Cl)CC(=O)O)c(Cl)c1Cl | 21 | 49
NS(=O)(=O)c1ccc(CCNC(=O)CN(CCN(CCN(CC(=O)O)CC(=O)NCCc2ccc(S(N)(=O)=O)cc2)CC(=O)O)CC(=O)O)cc1 [listing 1 of 2 here] | 25 | –
NS(=O)(=O)c1nc2ccc(NC(=O)CNCCNCC(=O)O)cc2s1 | 12 | 56
NS(=O)(=O)c1ccc(NC(=O)CN(CCOCCOCCN(CC(=O)O)CC(=O)O)CC(=O)O)c(Cl)c1 | 30 | 230

Structure (SMILES) | Ki (Carbonic anhydrase 4) [nM] | Ki (Carbonic anhydrase 1) [nM]
NS(=O)(=O)c1ccc(NC(=O)CN(CC(=O)O)CC(=O)O)c(I)c1 | 110 | 510
NS(=O)(=O)c1nc2ccc(NC(=O)CN(CCN(CCN(CC(=O)O)CC(=O)O)CC(=O)O)CC(=O)O)cc2s1 | 9 | –
NS(=O)(=O)c1ccc(CCNC(=O)CN(CCOCCOCCN(CC(=O)O)CC(=O)NCCc2ccc(S(N)(=O)=O)cc2)CC(=O)O)cc1 | 12 | 30
NS(=O)(=O)c1cccc(NC(=O)CN(CCN(CCN(CC(=O)O)CC(=O)O)CC(=O)O)CC(=O)O)c1 | 500 | –
NS(=O)(=O)c1cc(S(N)(=O)=O)c(NC(=O)CN(CCN(CCN(CC(=O)O)CC(=O)Nc2cc(Cl)c(S(N)(=O)=O)cc2S(N)(=O)=O)CC(=O)O)CC(=O)O)cc1Cl | 41 | –
NS(=O)(=O)c1nc2ccc(OCCOC(=O)CN(CCN(CCN(CC(=O)O)CC(=O)O)CC(=O)O)CC(=O)O)cc2s1 | 5 | –
NS(=O)(=O)c1cc(S(N)(=O)=O)c(NC(=O)CN(CCN(CCN(CC(=O)O)CC(=O)O)CC(=O)O)CC(=O)O)cc1Cl | 52 | –
NS(=O)(=O)c1nnc(NC(=O)CN(CCN(CC(=O)O)CC(=O)Nc2nnc(S(N)(=O)=O)s2)CC(=O)O)s1 [listing 1 of 2 here] | 12 | –
NS(=O)(=O)c1ccc(CCNC(=O)CN(CCN(CC(=O)O)CC(=O)NCCc2ccc(S(N)(=O)=O)cc2)CC(=O)O)cc1 [listing 1 of 2 here] | 13 | –
NS(=O)(=O)c1ccccc1NC(=O)CN(CCN(CCN(CC(=O)O)CC(=O)O)CC(=O)O)CC(=O)O | 550 | –
NS(=O)(=O)c1nnc(NC(=O)CN(CCN(CC(=O)O)CC(=O)Nc2nnc(S(N)(=O)=O)s2)CC(=O)O)s1 [listing 2 of 2 here] | 5 | –
NS(=O)(=O)c1ccc(COC(=O)CN(CCN(CCN(CC(=O)O)CC(=O)OCc2ccc(S(N)(=O)=O)cc2)CC(=O)O)CC(=O)O)cc1 | 170 | –
Cn1nc(S(N)(=O)=O)s/c1=N/C(=O)CN(CCN(CC(=O)O)CC(=O)/N=c1/sc(S(N)(=O)=O)nn1C)CC(=O)O | 8 | –
NS(=O)(=O)c1ccc(NC(=O)CN(CCN(CCN(CC(=O)O)CC(=O)O)CC(=O)O)CC(=O)O)c(I)c1 | 29 | –
NS(=O)(=O)c1nnc(NC(=O)CCNC(=O)CN(CCN(CCN(CC(=O)O)CC(=O)O)CC(=O)O)CC(=O)O)s1 | 16 | –
NS(=O)(=O)c1ccc(CNC(=O)CN(CCN(CCN(CC(=O)O)CC(=O)O)CC(=O)O)CC(=O)O)cc1 | 40 | –
NS(=O)(=O)c1ccc(NNC(=O)CN(CCN(CCN(CC(=O)O)CC(=O)O)CC(=O)O)CC(=O)O)cc1 | 630 | –
NS(=O)(=O)c1ccc(NC(=O)CN(CCN(CC(=O)O)CC(=O)Nc2ccc(S(N)(=O)=O)cc2)CC(=O)O)cc1 [listing 1 of 2 here] | 210 | –
NS(=O)(=O)c1ccc(NC(=O)CN(CCN(CCN(CC(=O)O)CC(=O)O)CC(=O)O)CC(=O)O)c(Cl)c1 | 32 | –
NS(=O)(=O)c1nnc(NC(=O)CCNC(=O)CN(CCN(CCN(CC(=O)O)CC(=O)NCCC(=O)Nc2nnc(S(N)(=O)=O)s2)CC(=O)O)CC(=O)O)s1 | 8 | –
NS(=O)(=O)c1ccc(NC(=O)CN(CCN(CC(=O)O)CC(=O)Nc2ccc(S(N)(=O)=O)cc2)CC(=O)O)cc1 [listing 2 of 2 here] | 230 | –
NS(=O)(=O)c1ccc(NNC(=O)CN(CCN(CCN(CC(=O)O)CC(=O)NNc2ccc(S(N)(=O)=O)cc2)CC(=O)O)CC(=O)O)cc1 | 430 | –

Structure (SMILES) | Ki (Carbonic anhydrase 4) [nM] | Ki (Carbonic anhydrase 1) [nM]
NS(=O)(=O)c1cccc(NC(=O)CN(CCN(CC(=O)O)CC(=O)Nc2cccc(S(N)(=O)=O)c2)CC(=O)O)c1 | 620 | –
Cn1nc(S(N)(=O)=O)s/c1=N/C(=O)CN(CCN(CCN(CC(=O)O)CC(=O)O)CC(=O)O)CC(=O)O | 19 | –
NS(=O)(=O)c1ccc(NC(=O)CN(CCN(CCN(CC(=O)O)CC(=O)O)CC(=O)O)CC(=O)O)c(F)c1 | 29 | –
NS(=O)(=O)c1ccc(CNC(=O)CN(CCN(CC(=O)O)CC(=O)NCc2ccc(S(N)(=O)=O)cc2)CC(=O)O)cc1 [listing 1 of 2 here] | 10 | –
NS(=O)(=O)c1ccc(NC(=O)CN(CCN(CCN(CC(=O)O)CC(=O)O)CC(=O)O)CC(=O)O)c(Br)c1 | 27 | –
NS(=O)(=O)c1ccc(NC(=O)CN(CCN(CCN(CC(=O)O)CC(=O)Nc2ccc(S(N)(=O)=O)cc2I)CC(=O)O)CC(=O)O)c(I)c1 | 24 | –
NS(=O)(=O)c1ccc(CCNC(=O)CN(CCN(CCN(CC(=O)O)CC(=O)NCCc2ccc(S(N)(=O)=O)cc2)CC(=O)O)CC(=O)O)cc1 [listing 2 of 2 here] | 16 | –
NS(=O)(=O)c1ccc(NC(=O)CN(CCN(CCN(CC(=O)O)CC(=O)Nc2ccc(S(N)(=O)=O)cc2Cl)CC(=O)O)CC(=O)O)c(Cl)c1 | 27 | –
NS(=O)(=O)c1ccc(NC(=O)CN(CCN(CCN(CC(=O)O)CC(=O)Nc2ccc(S(N)(=O)=O)cc2F)CC(=O)O)CC(=O)O)c(F)c1 | 18 | –
NS(=O)(=O)c1ccc(CCOC(=O)CN(CCN(CCN(CC(=O)O)CC(=O)OCCc2ccc(S(N)(=O)=O)cc2)CC(=O)O)CC(=O)O)cc1 | 115 | –
NS(=O)(=O)c1nc2ccc(NC(=O)CN(CCN(CCN(CC(=O)O)CC(=O)Nc3ccc4nc(S(N)(=O)=O)sc4c3)CC(=O)O)CC(=O)O)cc2s1 | 6 | –
NS(=O)(=O)c1nc2ccc(OC(=O)CN(CCN(CCN(CC(=O)O)CC(=O)O)CC(=O)O)CC(=O)O)cc2s1 | 6 | –
NS(=O)(=O)c1ccc(COC(=O)CN(CCN(CCN(CC(=O)O)CC(=O)O)CC(=O)O)CC(=O)O)cc1 | 265 | –
NS(=O)(=O)c1ccc(CCNC(=O)CN(CCN(CC(=O)O)CC(=O)NCCc2ccc(S(N)(=O)=O)cc2)CC(=O)O)cc1 [listing 2 of 2 here] | 54 | –
NS(=O)(=O)c1ccc(CCNC(=O)CN(CCN(CCN(CC(=O)O)CC(=O)O)CC(=O)O)CC(=O)O)cc1 | 36 | –
NS(=O)(=O)c1nnc(NC(=O)CN(CCN(CCN(CC(=O)O)CC(=O)Nc2nnc(S(N)(=O)=O)s2)CC(=O)O)CC(=O)O)s1 | 4 | –
NS(=O)(=O)c1ccc(CCOC(=O)CN(CCN(CCN(CC(=O)O)CC(=O)O)CC(=O)O)CC(=O)O)cc1 | 190 | –
NS(=O)(=O)c1cc(S(N)(=O)=O)c(NC(=O)CN(CCN(CCN(CC(=O)O)CC(=O)O)CC(=O)O)CC(=O)O)c(Cl)c1Cl | 36 | –
NS(=O)(=O)c1ccc(CNC(=O)CN(CCN(CC(=O)O)CC(=O)NCc2ccc(S(N)(=O)=O)cc2)CC(=O)O)cc1 [listing 2 of 2 here] | 62 | –
NS(=O)(=O)c1ccc(CNC(=O)CN(CCN(CCN(CC(=O)O)CC(=O)NCc2ccc(S(N)(=O)=O)cc2)CC(=O)O)CC(=O)O)cc1 [listing 2 of 2 here] | 21 | –
NS(=O)(=O)c1ccccc1NC(=O)CN(CCN(CCN(CC(=O)O)CC(=O)Nc1ccccc1S(N)(=O)=O)CC(=O)O)CC(=O)O | 330 | –
NS(=O)(=O)c1ccc(NC(=O)CN(CCN(CCN(CC(=O)O)CC(=O)Nc2ccc(S(N)(=O)=O)cc2)CC(=O)O)CC(=O)O)cc1 | 100 | –
